Changes are numbered by the printed parent chain. “And” between values parts separate entries of the source, which are not always exact repeats. Equal values may be shown once.

For series [1], the target named is T1, hTRPV3 single channel (Homo sapiens, UniProt Q8NET8).
T1 construct: expressed in transfected cells; host or cells: HEK293T
T1 sequence (Q8NET8 1-790): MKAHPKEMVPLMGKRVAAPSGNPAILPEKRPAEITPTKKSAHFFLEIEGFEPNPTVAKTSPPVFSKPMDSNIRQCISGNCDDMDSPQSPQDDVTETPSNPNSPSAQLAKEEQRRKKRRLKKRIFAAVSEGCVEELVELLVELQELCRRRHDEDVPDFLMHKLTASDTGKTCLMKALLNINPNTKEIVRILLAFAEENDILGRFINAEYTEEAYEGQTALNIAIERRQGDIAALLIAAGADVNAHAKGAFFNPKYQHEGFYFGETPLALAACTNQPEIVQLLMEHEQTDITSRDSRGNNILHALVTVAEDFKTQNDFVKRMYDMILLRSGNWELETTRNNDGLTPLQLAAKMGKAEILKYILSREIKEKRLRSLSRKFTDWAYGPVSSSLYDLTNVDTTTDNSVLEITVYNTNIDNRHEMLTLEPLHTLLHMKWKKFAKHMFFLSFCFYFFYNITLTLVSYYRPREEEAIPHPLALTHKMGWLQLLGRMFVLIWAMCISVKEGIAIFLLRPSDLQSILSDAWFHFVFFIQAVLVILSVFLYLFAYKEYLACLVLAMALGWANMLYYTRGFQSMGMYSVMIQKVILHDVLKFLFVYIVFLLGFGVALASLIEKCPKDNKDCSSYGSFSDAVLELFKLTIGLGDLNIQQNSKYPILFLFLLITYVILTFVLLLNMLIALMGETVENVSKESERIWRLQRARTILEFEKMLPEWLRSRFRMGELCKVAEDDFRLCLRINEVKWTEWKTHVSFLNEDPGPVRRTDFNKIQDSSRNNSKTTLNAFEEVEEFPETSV
The experiment in a line: Inside-out single-channel recording of hTRPV3. Particulars: CA at 500 μM co-applied with 50 μM 2-APB, −60 mV. Format: cell-based.

Series [2] addresses T2, human TRPV1 (hTRPV1) channels (Homo sapiens, UniProt Q8NER1).
T2 construct: expressed in transfected cells; host or cells: HEK293T
The experiment in a line: Whole-cell patch-clamp selectivity, hTRPV1 in HEK293T cells. In kind it is cell-based. Particulars: HEK-293T; CA at 1000 μM, current caused by 1 μM capsaicin, mean ± SD, n = 5. For orientation: Patch clamp records ionic current or voltage across a cell membrane.

Series [3] deals with T3, hTRPV3 T636A mutant (Homo sapiens, UniProt Q8NET8, T636A).
T3 construct: expressed in transfected cells; host or cells: HEK293T
T3 sequence (Q8NET8 1-790 T636A): T1 sequence (Q8NET8 1-790) with T636A
The series can be described thus: Whole-cell patch-clamp of hTRPV3 T636A mutant in HEK293T cells. In kind it is cell-based.

The subject of series [4] is HEK293T cells. The experiment in a line: Cell viability of HEK293T cells (CCK-8 assay). Format: cell-based, human. The following applies: CA 1 mM, CCK-8, 6 hours treatment. In general terms: Tetrazolium dyes change colour on reduction, which living cells bring about.
In series [5] the target is T4, hTRPV3 L669A mutant (Homo sapiens, UniProt Q8NET8, L669A).
T4 sequence (Q8NET8 1-790 L669A): T1 sequence (Q8NET8 1-790) with L669A
The series can be described thus: cell-based.

T2 sequence (Q8NER1 whole entry): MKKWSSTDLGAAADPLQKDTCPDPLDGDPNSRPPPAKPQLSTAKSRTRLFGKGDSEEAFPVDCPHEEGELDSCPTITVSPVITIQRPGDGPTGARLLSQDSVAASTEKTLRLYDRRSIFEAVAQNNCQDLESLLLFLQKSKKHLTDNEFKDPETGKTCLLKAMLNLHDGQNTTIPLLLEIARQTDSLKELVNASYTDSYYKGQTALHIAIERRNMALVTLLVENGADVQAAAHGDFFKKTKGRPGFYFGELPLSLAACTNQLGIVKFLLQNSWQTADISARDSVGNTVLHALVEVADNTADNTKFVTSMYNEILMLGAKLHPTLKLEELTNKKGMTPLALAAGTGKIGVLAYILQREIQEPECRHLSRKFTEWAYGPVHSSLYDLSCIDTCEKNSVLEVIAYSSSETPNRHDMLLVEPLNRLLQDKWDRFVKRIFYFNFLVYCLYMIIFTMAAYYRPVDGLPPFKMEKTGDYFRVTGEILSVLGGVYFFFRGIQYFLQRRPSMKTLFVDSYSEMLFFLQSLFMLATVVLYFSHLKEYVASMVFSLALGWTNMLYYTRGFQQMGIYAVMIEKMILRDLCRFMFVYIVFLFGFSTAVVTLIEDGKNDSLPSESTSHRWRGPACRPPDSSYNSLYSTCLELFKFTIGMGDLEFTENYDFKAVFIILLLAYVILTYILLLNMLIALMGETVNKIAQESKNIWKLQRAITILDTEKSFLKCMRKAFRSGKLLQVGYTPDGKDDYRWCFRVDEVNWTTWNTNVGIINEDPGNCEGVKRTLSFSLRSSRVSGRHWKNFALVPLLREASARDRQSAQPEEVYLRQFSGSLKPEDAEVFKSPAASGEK

The inhibition is the share of the control response that was lost under treatment. Read a low inhibition as little suppression. Broadly, the IC50 is the concentration that gives 50% inhibition. On to `O=C(O)/C=C/c1ccc(O)c(O)c1` [CA, caffeic acid], for which the “open frequency (Freq)” value in series [1] was found to be 15.96 ± 2.25 Hz. Besides, in series [2], the inhibition at 1000 µM was ~20%. In addition, the IC50 in series [3] (T636A hTRPV3, 50 μM 2-APB, +80 mV, Hill fit, read-out: IC50, inhibition of T636A mutant outward currents) was > 1 mM and 1 mM; in series [5], 0.18 ± 0.0599 mM. The “channel current inhibition by 500 μM CA compared to WT” value in series [3] (T636A mutant, 50 μM 2-APB, 500 μM CA) is “significantly diminished”. For the same molecule, the “cytotoxicity (cell viability)” value in series [4] is reported as “did not cause any noticeable cytotoxicity”.

Values taken from article PMC11357638 (Molecules, 2024).
